Read-outs that look alike come from different tables or passages of the source. One block for each molecule: values may come before it.
Legend:
[1] = Methylene blue gut assay (GI transit time); type: in vivo, C57BL/6 mice
Protocol: In order to determine the rate at which oral solutions such as WR-2721 traverse the digestive tract of 8-week old C57BL/6 mice following oral gavage, a 1% (w/v) solution of methylene blue in PBS was gavaged in a total volume of 0.1 ml. Mice were then euthanized at 5, 10, 15, 25 and 30 min after the dye administration and the progress of the methylene blue stain through the intestines was examined. Mice were anesthetized with isoflurane 8 min prior to euthanasia following the same procedure used prior to irradiation (8 min at 3% isoflurane and oxygen flow rate of 2 L/min) to account for any potential changes it might have on GI transit time. Methylene blue dye progress was examined in situ for comparison with the location of our standard radiation field and then the intestine was excised so that distance traveled could be determined.

[2] = tested on: duodenal and jejunal crypts; assay: Microcolony assay (Withers-Elkind), surviving crypts after 12 Gy whole body irradiation; type: in vivo, C3Hf/KamLaw mice; conditions: jejunum, oral, 30 min prior to 12 Gy WBI; no further benefit at 1000 mg/kg
Protocol: (§1) WR-2721 Trihydrate (Toronto Research Chemicals Inc; North York, Ontario, Canada) was diluted in PBS (with 0.2 conversion factor to adjust for trihydrate) and was administered by IP injection at 25 or 250 or 500 mg/kg or by oral gavage at doses […] 150 to 1000 mg/kg in a volume of 0.1 ml.
For the microcolony assay, a single dose of 12 Gy whole body irradiation (WBI) was administered 15 min or 30 min after WR-2721 treatment using a Pantak 300 x-ray unit (Pantak; East Haven, Conn.), with 300 kVp X-rays at a dose rate of 1.84 Gy/min. Un-anesthetized mice were loosely restrained in a well ventilated 15×15×2 cm Lucite box during WBI.
Viable jejunal crypts were quantified following a single dose of 12 Gy WBI+/− a single oral dose of WR-2721 given at 15 min or 30 min prior to radiation using the microcolony assay. Mice were euthanized 3 days and 14 hours after receiving WBI, and segments of jejunum and duodenum were resected and fixed in 10% neutral buffered formalin. Tissue was then embedded in paraffin, and four transverse slices of jejunum and duodenum were stained with hematoxylin and eosin per mouse. The number of regenerating crypts per transverse section was scored microscopically and averaged over the 4 sections per animal for each tissue type. All slides were scored by a single observer blinded to treatment group. […]

[3] = Tolerability: body weight and food consumption as a model of nausea; type: in vivo, C57BL/6JLaw mice
Protocol: as §1
Severe nausea is a common and worrisome side effect of systemic WR-2721, and the concern that oral administration of the drug might exacerbate this side effect was examined. […] Thus, body weight and food consumption was closely monitored as a model of nausea in mice. Based on the results of the microcolony assay (FIG. 1), 500 mg/kg were used as the dose for toxicity testing. Mice were treated daily for 5 consecutive days with vehicle or WR-2721 administered IP or Per os (PO), and body weight and food consumption were monitored daily (FIGS. 2A and 2B, respectively). There was only one vehicle control group that was subjected to both gavage and intraperitoneal injections to more stringently control for the stress of drug administration from either IP or PO route. Despite this intensive intervention, the vehicle control animals maintained their initial bodyweight and food consumption throughout the study (FIGS. 2A and 2B).

[4] = tested on: C57BL/6 mice given lethal fractionated radiation; assay: Survival study after fractionated SBRT to the upper abdomen; type: in vivo, C57BL/6JLaw mice; conditions: oral 500 mg/kg 25 min prior to each of 5 daily fractions of 12.5 Gy, 10 mm field; all vehicle controls died in fewer than 10 days
Protocol: (§2) For survival studies, SBRT was given for 5 consecutive days 25 min after administration of vehicle or WR-2721 using the XRAD 225Cx small animal irradiator (Precision X-Ray; North Branford, Conn.) fitted with a conformal collimator to produce a circular 10 mm diameter radiation field. Mice were anesthetized with isoflurane gas for CT imaging and irradiation. Each mouse was imaged using the XRAD 225Cx cone beam CT prior to irradiation in order to align the radiation field so that the cranial edge of the field was located 5 mm below the diaphragm at the isocenter of the mouse. This field exposed the pancreas, duodenum, jejunum and liver to radiation. Radiation was administered anterior-posterior-posterio-anterior (AP-PA).
(§3) Mice were treated with WR-2721 or vehicle by intraperitoneal (IP) injection or oral gavage followed by SBRT and monitored on a daily basis. […] Time to euthanasia and percent survival were assessed.
It was hypothesized that the maximal benefit of radioprotection would likely occur between 12 and 13 Gy at 12.5 Gy×5 fractions (62.5 Gy; D2Eq=117.2 Gy). […] Remarkably, 100% of mice that received oral WR-2721 lived beyond 30 days, while all vehicle controls died in fewer than 10 days FIG. 3D, log rank p=0.0035).

[5] = tested on: KPC mice with spontaneous pancreatic cancer; assay: Survival of tumor-bearing KPC mice after SBRT; type: in vivo, Kras LSL/+; Trp53 FL/+; Ptf1a Cre/+ (KPC) mice; conditions: SBRT 12.5 Gy x 5 + oral WR-2721 25 min prior to each fraction; VEH and SBRT+VEH 15 days
Protocol: as §2, §3
Further confirmation is illustrated in FIG. 6. KPC Mice were enrolled onto the study shortly after diagnosis and were treated to vehicle alone, SBRT with vehicle or SBRT with oral WR-2721. The SBRT field was 10 mm given AP/PA to the tumor and the dose was 12.5 Gy per day for 5 consecutive days for a total dose of 62.5 Gy (EQD2=117.2 Gy; α/β10=140.6). The tumors were identified by micro CT and ultrasound on a daily basis without fiducials. […]

[6] = mouse, in vivo, 25 min
Protocol: Next, the specificity of WR-1065 enrichment in intestines was determined in a genetically engineered mouse model. Kras^LSL/+; Trp53^FL/+; Ptfla^Cre/+ (KPC) mice that develop spontaneous pancreatic cancer were bred, and then backcrossed to a C57BL/6 background over 10 generations to eliminate the confounding issue of genetic variance from […] mice. These autochthonous tumors are thought to recapitulate the desmoplasia observed in human tumors that may make these tumors more aggressive. To be an effective an effective clinical radioprotectant, WR-1065 should not accumulate in tumors. Thus, plasma, liver, duodenum, jejunum and pancreatic tumors were collected 25 min after oral administration of 500 mg/kg (HED=41 mg/kg), or IP administration of 250 mg/kg WR-2721 (HED=20 mg/kg) to determine the concentrations of the WR-1065 (see schema in FIG. 4D).

[7] = given intravenously; cited from earlier work
[8] = LC/MS-MS analysis of WR-1065 plasma and tissue concentrations, C57BL/6 mice; conditions: WR-2721 500 mg/kg oral, 25 min
Protocol: Mice were treated with either 500 mg/kg of WR-2721 by oral gavage, or 250 mg/kg by IP injection. After 17 min had elapsed, the mice were anesthetized with isoflurane gas (3% isoflurane, oxygen flow rate of 2 L/min). After 8 min of anesthesia, whole blood and tissues were collected. The total amount of time between treatment and tissue collection was 25 min.
While under isoflurane anesthesia, the whole blood sample was collected via cardiac puncture and was immediately transferred to a BD Microtainer® blood collection tube containing K2-EDTA (Becton Dickinson; Franklin Lakes, N.J.). The K2-EDTA whole blood was then processed to plasma by centrifugation at 3,000 g for 4 min. After processing, a volume of the plasma supernatant (typically 200 μL) was removed and immediately transferred to a fresh 1.4 mL Matrix polypropylene (PP) tube (Thermo Fisher Scientific; Waltham, Mass.) containing a 50 μL aliquot of 10% trichloroacetic acid (TCA). After vortexing, the TCA-treated plasma samples were stored on ice for transport from the vivarium to the laboratory for further processing. The TCA-treated plasma samples were then centrifuged at 17,000 g for 5 min, and the supernatant was transferred to a fresh 1.4 mL Matrix tube, and the samples were either extracted and analyzed immediately or capped for −80° C. storage until analysis. […]

[9] = oral 500 mg/kg daily for 5 consecutive days

time at which dye was in the jejunum ([1]; C57BL/6, mouse, in vivo, po): 15 to 30 min
time to reach the duodenum ([1]; C57BL/6, mouse, in vivo, po): ≤ 10 min
SMILES: CN(C)c1ccc2nc3ccc(=[N+](C)C)cc-3sc2c1 [Methylene blue, methylene blue]
dye front within 30 min ([1]; oral gavage, 1% (w/v) in PBS, 0.1 ml): had not reached the cecum or large intestine

SMILES: NCCCNCCSP(=O)(O)O [WR-2721, S-2-(3-aminopropylamino)ethyl dihydrogen phosphorothioate]
dose at which radiation protection was maximized [2]: 500 mg/kg
day by which euthanasia was required ([3]; intraperitoneal 500 mg/kg daily): ≤ 4 days
body weight and food consumption ([3]; intraperitoneal 500 mg/kg daily, 5 consecutive days planned): dramatic decrease in food consumption and body weight
body weight and food consumption [3, 9]: modest initial decrease in body weight and food consumption
time to complete recovery of body weight after stopping treatment [3, 9]: ≤ 2 days
mice that lived beyond 30 days [4]: 100%
median survival [5]: 40 days
WR-1065 concentration in duodenum ([6]; ip, 250 mg/kg): 236.2±8.6 pmol WR-1065/mg tissue
WR-1065 concentration in jejunum ([6]; ip, 250 mg/kg): 275.5±5.0 pmol WR-1065/mg tissue
WR-1065 concentration in liver ([6]; ip, 250 mg/kg): 420±69.8 pmol WR-1065/mg tissue
WR-1065 concentration in pancreatic tumors ([6]; ip, 250 mg/kg): 248±30.2 pmol WR-1065/mg tissue
WR-1065 concentration in duodenum ([6]; po, 500 mg/kg): 200.6±23.3 pmol WR-1065/mg tissue
WR-1065 concentration in jejunum ([6]; po, 500 mg/kg): 757.7±26.8 pmol WR-1065/mg tissue
WR-1065 concentration in liver ([6]; po, 500 mg/kg): 59.9±26.8 pmol WR-1065/mg tissue
WR-1065 concentration in tumor ([6]; po, 500 mg/kg): 24.5±1.9 pmol WR-1065/mg tissue
enrichment of the drug in the intestines compared to tumor ([6]; po, 500 mg/kg): 10-40 fold
side effects [7]: severe nausea and hypotension
enhancement of WR-1065 within duodenum and jejunum compared to liver [8]: six- to twelve-fold

— patent US11478489B2, “Selective accretion of cytoprotectant in radiation-sensitive tissues and uses thereof” (WILLIAM MARSH RICE UNIVERSITY, priority 2017, dated 2022)
